According to patent US20260098034A1, “2H-BENZOTRIAZOLE DERIVATIVE, PREPARATION METHOD THEREFOR, AND PHARMACEUTICAL COMPOSITION CONTAINING SAME” (ORXES THERAPEUTICS CO., LTD., priority 2022, published 2026):
Where “and” joins values, the source holds several entries; their conditions need not be identical. Identical values can stand only once. Counter-ions that a name gives are not always drawn. Like-named read-outs stand apart in the source and are kept apart here.

Tests used:
[1] = test system: Wistar rats; assay: PCA-induced Wistar rat premature ejaculation model; format: in vivo; conditions: for Actual number of ejaculations / Number of the seminal vesicle contractions / Seminal vesicle basal pressure / Seminal vesicle peak pressure / The first contraction latency period / The first ejaculation latency period: within 30 min after PCA induction, individual rats
Description: Male Wistar rats with a weight of about 300 g were adapted for one week before the experiment was started. On the day of the experiment, the animals were anesthetized with a combination of 20 mg/kg of Zoletil 50 via i.p. and 8 mg/kg of xylazine via i.p., and the body temperature was maintained at 37° C. with a thermal insulation blanket. Exposed common carotid artery was intubated with PE50 to monitor real-time arterial pressure (i.e. systolic pressure, diastolic pressure, and mean arterial pressure). The seminal vesicles and cavernosal muscles of the animals were exposed. The stable baselines of the pressure of the seminal vesicle and the cavernosal myoelectricity were recorded for 10 min. Then the drug was administered through the tail vein for the dapoxetine group, and the tested compound was orally administered for the tested compound group (for the PE model group, the drug was replaced with a solvent). After 1 min, for inducing PE modeling, 5 mg/kg of PCA was injected intraperitoneally, and then the seminal vesicle pressure curve and the change of bulbospongiosus EMG were continuously recorded for 30 min.
• A. Within 30 min, the actual number of ejaculations of the animals and the latency period of the first ejaculation; • B. Within 30 min, the number of the seminal vesicle contractions, the latency period of the first contraction, the basal pressure and the peak pressure.
The experimental data were expressed by means±S.E.M., and statistical analysis was performed by GraphPad Prism 7.0 software. Single factor variance analysis (One-way ANOVA) was used for comparison between multiple groups, and Dunnett't-test was used for statistical analysis in Post hoc test. Student's t-test was used for comparison between two groups. P<0.05 was considered as a significant difference.

[2] = 1 to 2 hours before sexual intercourse, cited from earlier work
[3] = 0.125 mg/kg p.o. + PCA 5 mg/kg i.p.
[4] = 0.5 mg/kg p.o. + PCA 5 mg/kg i.p.
[5] = 2 mg/kg p.o. + PCA 5 mg/kg i.p.
[6] = Dapoxetine 2 mg/kg i.v. + PCA 5 mg/kg i.p., hydrochloride
[7] = dapoxetine, medium or high dose of A001 to A006

Fc1ccc2c(N3CCN(CCCCn4nc5ccccc5n4)CC3)noc2c1 [Compound A006]
Actual number of ejaculations [1, 3]: 0 and 1 and 4 (2×) and 5
Number of the seminal vesicle contractions [1, 3]: 2 (2×) and 7 (2×) and 8
Seminal vesicle basal pressure [1, 3]: 3.93 mmHg and 3.88 mmHg and 5.98 mmHg and 5.79 mmHg and 5.18 mmHg
Seminal vesicle peak pressure [1, 3]: 4.11 mmHg and 4.21 mmHg and 16.58 mmHg and 15.19 mmHg and 17.07 mmHg
The first contraction latency period [1, 3]: 1453 s and 1325 s and 707 s and 758 s and 738 s
The first ejaculation latency period [1, 3]: 1800 s and 1330 s and 877 s and 798 s and 808 s
Actual number of ejaculations [1, 4]: 6 and 4 and 2 and 0 (2×)
Number of the seminal vesicle contractions [1, 4]: 8 and 6 and 3 and 0 (2×)
Seminal vesicle basal pressure [1, 4]: 5.86 mmHg and 6.06 mmHg and 5.12 mmHg and 3.91 mmHg and 4.25 mmHg
Seminal vesicle peak pressure [1, 4]: 18.66 mmHg and 20.61 mmHg and 12.89 mmHg and 4.19 mmHg and 4.79 mmHg
The first contraction latency period [1, 4]: 899 s and 816 s and 1022 s and 1800 s (2×)
The first ejaculation latency period [1, 4]: 855 s and 903 s and 1175 s and 1800 s (2×)
Actual number of ejaculations [1, 5]: 0
Number of the seminal vesicle contractions [1, 5]: 0 (4×) and 1
Seminal vesicle basal pressure [1, 5]: 4.66 mmHg and 4.16 mmHg and 4.65 mmHg and 4.67 mmHg and 3.98 mmHg
Seminal vesicle peak pressure [1, 5]: 5.13 mmHg and 5.28 mmHg and 4.97 mmHg and 4.79 mmHg and 7.87 mmHg
The first contraction latency period [1, 5]: 1800 s (4×) and 1660 s
The first ejaculation latency period [1, 5]: 1800 s

CN(C)[C@@H](CCOc1cccc2ccccc12)c1ccccc1 [Dapoxetine, Dapoxetine hydrochloride, reference compound]
increase of IELT ([2]; 30 mg): 2.5 times
increase of IELT ([2]; 60 mg): 3.0 times
Actual number of ejaculations [1, 6]: 1 (2×) and 0 (2×) and 2
Number of the seminal vesicle contractions [1, 6]: 1 (3×) and 0 and 3
Seminal vesicle basal pressure [1, 6]: 5.16 mmHg and 4.97 mmHg and 5.37 mmHg and 5.88 mmHg and 4.96 mmHg
Seminal vesicle peak pressure [1, 6]: 6.89 mmHg and 8.1 mmHg and 6.46 mmHg and 6.78 mmHg and 7.03 mmHg
The first contraction latency period [1, 6]: 1448 s and 1705 s and 1800 s and 1749 s and 866 s
The first ejaculation latency period [1, 6]: 1558 s and 1800 s (2×) and 1256 s and 967 s
latency period of initial seminal vesicle contraction compared with the PE model group ([1]; dapoxetine group (2 mg/kg i.v.), FIG. 4): significant increase
ejaculation latency period (conclusion) [1, 7]: effectively prolong
number of ejaculations (conclusion) [1, 7]: greatly reduce
